Test results taken from ChEMBL document CHEMBL1154556, “Siamenol, a new carbazole alkaloid from Murraya siamensis” (J Nat Prod, 2000).
Converted amounts (≈) assume the structure as drawn. The source made the active and inactive calls. The calls are words filed in the database; no cut-off is given here.

Assays:
[1] = tested on: Human immunodeficiency virus; assay: Antiviral activity against HIV; format: functional, organism-based
[2] = tested on: Human immunodeficiency virus; assay: Antiviral activity against HIV assessed as protection against viral infection by XTT-tetrazolium method; format: functional

| EC50 ([1]; Human immunodeficiency virus 1) | IC50 ([1]; Human immunodeficiency virus 1) | SMILES | Activity [1] | Activity [2] |
| --- | --- | --- | --- | --- |
|  |  | CC(C)=CCCC1(C)C=Cc2c(c(C)cc3c2[nH]c2ccccc23)O1 (stereo not given) | inactive |  |
| 8.6 µg/mL (≈ 25.8 µM) | 23 µg/mL (≈ 69 µM) | CC(C)=CCC/C(C)=C/Cc1c(O)c(C)cc2c1[nH]c1ccccc12 [MAHANIMBILOL] |  |  |
| 2.6 µg/mL (≈ 9.8 µM) |  | CC(C)=CCc1cc2c(cc1O)[nH]c1ccc(C)cc12 [SIAMENOL] |  | 50% |
